Reference: patent publication US10759810B2 (AO “TATKHIMFARMPREPARATY”, priority 2016, dated 2020)

How the values were obtained:
Assay type in all cases: cell-based
[1] = test system: Micrococcus luteus (clinical isolate); experiment: MIC, serial dilutions in Mueller-Hinton broth; details: inoculum 10^7 CFU/ml; gram-positive
Experimental: (§1) Measurement of antibacterial activity was carried out on the strains of Staphylococcus aureus ATCC 29213 (museum strain), Staphylococcus epidermidis (clinical isolate), Micrococcus luteus (clinical isolate), Bacillus subtilis 168 (museum strain), Escherichia coli ATCC 25922 (museum strain), Salmonella typhimurium TA100 (museum strain), Pseudomonas aeruginosa ATCC 27853 (museum strain). A comparative assessment of the spectrum of antibacterial action on reference strains and clinical isolates of gram-positive microorganisms was carried out using a micromethod for determining the minimum inhibitory concentration (MIC) using serial dilutions in Mueller-Hinton broth using 96-well sterile plates.
(§2) The first lowest concentration of the antibiotic (from a series of successive dilutions), where bacterial growth is not visually determined, is considered to be the minimum inhibitory concentration (MIC).
(§3) For the preparation of inoculum (infectious material used for artificial contamination), intended for the study of antibacterial activity, was used a pure daily culture of bacteria grown on a dense nutrient medium (agar LB medium). In a sterile isotonic solution of sodium chloride, a suspension of microorganisms was prepared, adjusting the inoculum density to 0.5 according to the McFarland standard (1.5·10^8 CFU/ml). Then, the resulting inoculum was diluted to a concentration of 10^7 CFU/ml with LB-broth. The inoculum was used for 15 minutes after preparation; the purity of the bacterial strains was monitored before each experiment.
(§4) 100 μl of Muller-Hinton broth was added to the wells of each plate; the test base was introduced into the first well at a concentration of 128 μg/ml in a volume of 100 μl and its concentration was adjusted to 0.25 μg/ml by consecutive two-fold dilution. […] Each preparation in the experiment was titrated three times. […] In addition, the purity of nutrient media and solvents was monitored. The plates were incubated in a thermostat at […] for 24 hours.
(§5) The growth of cultures was assessed visually, comparing the growth of microorganisms in the presence of test compounds with the growth of culture without them.

[2] = test system: Staphylococcus epidermidis (clinical isolate); experiment: MIC, serial dilutions in Mueller-Hinton broth; details: inoculum 10^7 CFU/ml; gram-positive
Experimental: as §1, §2, §3, §4, §5

[3] = test system: Escherichia coli ATCC 25922 (museum strain); experiment: MIC, serial dilutions in Mueller-Hinton broth; details: inoculum 10^7 CFU/ml; gram-negative
Experimental: as §1, §2, §3, §4, §5

[4] = test system: Staphylococcus aureus ATCC 29213 (museum strain); experiment: MIC, serial dilutions in Mueller-Hinton broth; details: inoculum 10^7 CFU/ml; gram-positive
Experimental: as §1, §2, §3, §4, §5

[5] = test system: Salmonella typhimurium TA100 (museum strain); experiment: MIC, serial dilutions in Mueller-Hinton broth; details: inoculum 10^7 CFU/ml; gram-negative
Experimental: as §1, §2, §3, §4, §5

[6] = test system: Bacillus subtilis 168 (museum strain); experiment: MIC, serial dilutions in Mueller-Hinton broth; details: inoculum 10^7 CFU/ml; gram-positive
Experimental: as §1, §2, §3, §4, §5

[7] = test system: Pseudomonas aeruginosa ATCC 27853 (museum strain); experiment: MIC, serial dilutions in Mueller-Hinton broth; details: inoculum 10^7 CFU/ml; gram-negative
Experimental: as §1, §2, §3, §4, §5

[8] = test system: gram-positive microorganisms; experiment: Antibacterial activity (MIC), gram-positive strains; details: in words, versus comparison drugs
Experimental: as §1, §2
(§6) For the preparation of inoculum (infectious material used for artificial contamination), intended for the study of antibacterial activity, was used a pure daily culture of bacteria grown on a dense nutrient medium (agar LB medium). […] The inoculum was used for 15 minutes after preparation; the purity of the bacterial strains was monitored before each experiment. […]

[9] = test system: microorganism strains under study; experiment: Antibacterial activity (MIC), whole strain panel; details: in words, from Table 1
Experimental: as §1, §2, §6

1-cyclopropyl-6-fluoro-7-(4-((5-hydroxy-2,4-bis(hydroxymethyl)-6-methylpyridine-3-yl) methyl) piperazinyl)-4-oxo-1,4-dihydroquinolin-3-carboxylic acid [Compound I-9]
MIC, M. luteus [1]: 2 µg/mL | MIC, S. epidermidis [2]: 8 µg/mL | MIC, E. coli [3]: 64 µg/mL | MIC, S. aureus [4]: 0.5 µg/mL | MIC, S. typhimurium [5]: 4 µg/mL | MIC, B. subtilis [6]: 4 µg/mL | MIC, P. aerugenosa [7]: >64 µg/mL | antibacterial action with respect to gram-positive microorganisms [8]: comparable with the comparison drugs | antibacterial activity against the microorganism strains under study [9]: most active
